# Test results taken from patent US10323018B2 (Millennium Pharmaceuticals, Inc., priority 2015, dated 2019).
# What was measured:
# [1] = target: hNAMPT protein (Homo sapiens (Human), UniProt P43490); test: NAMPT enzyme assay (TR-FRET/HTRF with BodiPY ligand); format: binding; conditions: for IC50: NAMPT inhibition, IC50 range class
# How it was run: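 His-tagged hNAMPT with anti-6His-Tb, incubated with compound and BodiPY ligand for 1 h at rt in the dark, in Tris-HCl pH 7.5 buffer with DTT, NaCl, MgCl2 and Tween 20. TR-FRET measured with 320 nm excitation as the 520/486 nm emission ratio. IC50 fitted relative to DMSO controls.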
# [2] = test system: PC3 cells; test: PC3 growth inhibition (Cell-titer glo, 72 hours); format: cell-based; conditions: for viability at 1.667 µM: Homo sapiens, PC-3, 72 h, read-out: Percent Viability, PC3 cells, compound concentration 1.667 μM, 72 hours
# How it was run: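 PC3 cells grown in RPMI1640 plated at 8×10^4 cells/ml, incubated overnight, then exposed to compound diluted in AIM serum-free medium for 72 h at 37 °C, 5% CO2. Luminescence by CellTiter-Glo relative to DMSO controls; % viability at single concentration, GI50 or LD50 from concentration-response curves.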
# [3] = NAMPT inhibition at compound concentration 1 μM, read-out: Percent Inhibition
# Sequence of hNAMPT protein (P43490 whole entry): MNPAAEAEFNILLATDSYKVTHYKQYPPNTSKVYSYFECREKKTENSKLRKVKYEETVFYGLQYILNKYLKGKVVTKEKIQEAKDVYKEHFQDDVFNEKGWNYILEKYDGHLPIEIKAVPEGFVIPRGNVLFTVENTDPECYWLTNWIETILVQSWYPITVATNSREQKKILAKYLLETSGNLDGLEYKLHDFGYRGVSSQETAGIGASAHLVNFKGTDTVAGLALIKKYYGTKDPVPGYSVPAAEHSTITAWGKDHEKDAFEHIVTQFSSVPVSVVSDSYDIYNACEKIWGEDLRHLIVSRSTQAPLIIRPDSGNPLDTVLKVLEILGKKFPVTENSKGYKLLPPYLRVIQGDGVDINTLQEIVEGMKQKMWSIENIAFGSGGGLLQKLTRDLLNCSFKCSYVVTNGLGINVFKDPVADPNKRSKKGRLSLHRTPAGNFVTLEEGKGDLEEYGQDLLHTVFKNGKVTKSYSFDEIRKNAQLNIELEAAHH
smiles,measurement,setting,value
"CCOc1cc(-c2ccc(C)nc2)nc2cc(C(=O)NCCc3nnc[nH]3)ccc12 [Compound I-168, 4-ethoxy-2-(6-methylpyridin-3-yl)-N-[2-(4H-1,2,4-triazol-3-yl)ethyl]quinoline-7-carboxamide]",inhibition at 1 µM,[1]; [3],95%
same,IC50,[1],10 to 50 nM
same,viability at 1.667 µM,[2],2%
"CCOc1cc(-c2ccnc(OC)c2)nc2cc(C(=O)NCc3ccn4ncnc4c3)ccc12 [Compound I-70, 4-ethoxy-2-(2-methoxypyridin-4-yl)-N-([1,2,4]triazolo[1,5-a]pyridin-7-ylmethyl)quinoline-7-carboxamide]",inhibition at 1 µM,[1]; [3],99%
same,IC50,[1],< 10 nM
same,viability at 1.667 µM,[2],1%
"CCOc1cc(-c2ccnc(OC)c2)nc2cc(C(=O)NCCCc3nnc[nH]3)ccc12 [Compound I-114, 4-ethoxy-2-(2-methoxypyridin-4-yl)-N-[3-(4H-1,2,4-triazol-3-yl)propyl]quinoline-7-carboxamide]",inhibition at 1 µM,[1]; [3],97%
same,IC50,[1],10 to 50 nM
same,viability at 1.667 µM,[2],2%
"CCOc1cc(-c2ccc(F)cc2OC)nc2cc(C(=O)NCCc3c[nH]nc3C)ccc12 [Compound I-129, 4-ethoxy-2-(4-fluoro-2-methoxyphenyl)-N-[2-(3-methyl-1H-pyrazol-4-yl)ethyl]quinoline-7-carboxamide]",inhibition at 1 µM,[1]; [3],96%
same,IC50,[1],10 to 50 nM
same,viability at 1.667 µM,[2],2%
"CCOc1cc(-c2ccc(C)nc2OC)nc2cc(C(=O)NCCc3[nH]nnc3C)ccc12 [Compound I-87, 4-ethoxy-2-(2-methoxy-6-methylpyridin-3-yl)-N-[2-(4-methyl-1H-1,2,3-triazol-5-yl)ethyl]quinoline-7-carboxamide]",inhibition at 1 µM,[1]; [3],94%
same,IC50,[1],10 to 50 nM
same,viability at 1.667 µM,[2],2%
"CC(C)Oc1cc(-c2ccc(F)cc2)nc2cc(C(=O)NCCCc3ncc[nH]3)ccc12 [Compound I-17, 2-(4-fluorophenyl)-N-[3-(1H-imidazol-2-yl)propyl]-4-isopropoxyquinoline-7-carboxamide]",inhibition at 1 µM,[1]; [3],99%
same,IC50,[1],< 10 nM
same,viability at 1.667 µM,[2],0%
"CCOc1cc(-c2ccc(C)nc2)nc2cc(C(=O)NCCCc3nnc[nH]3)ccc12 [Compound I-173, 4-ethoxy-2-(6-methylpyridin-3-yl)-N-[3-(4H-1,2,4-triazol-3-yl)propyl]quinoline-7-carboxamide]",inhibition at 1 µM,[1]; [3],98%
same,IC50,[1],10 to 50 nM
same,viability at 1.667 µM,[2],2%
"COCCOc1cc(-c2ccc(F)cc2)nc2cc(C(=O)NCCCc3n[nH]nc3C)ccc12 [Compound I-66, 2-(4-fluorophenyl)-4-(2-methoxyethoxy)-N-[3-(5-methyl-2H-1,2,3-triazol-4-yl)propyl]quinoline-7-carboxamide]",inhibition at 1 µM,[1]; [3],94%
same,IC50,[1],10 to 50 nM
same,viability at 1.667 µM,[2],2%
"CCOc1cc(-c2ccc(F)cc2OC)nc2cc(C(=O)NCCc3ncn[nH]3)ccc12 [Compound I-170, 4-ethoxy-2-(4-fluoro-2-methoxyphenyl)-N-[2-(1H-1,2,4-triazol-5-yl)ethyl]quinoline-7-carboxamide]",inhibition at 1 µM,[1]; [3],93%
same,IC50,[1],50 to 100 nM
same,viability at 1.667 µM,[2],2%
"Cc1cc(-c2nc(-c3ccc(F)cc3)nc3cc(C(=O)NCCCc4nnc[nH]4)ccc23)ccn1 [Compound I-162, 2-(4-fluorophenyl)-4-(2-methylpyridin-4-yl)-N-[3-(4H-1,2,4-triazol-3-yl)propyl]quinazoline-7-carboxamide]",inhibition at 1 µM,[1]; [3],94%
same,IC50,[1],10 to 50 nM
same,viability at 1.667 µM,[2],2%
"CCOc1cc(-c2cnc(Cl)cc2C)nc2cc(C(=O)NCCCc3nnc[nH]3)ccc12 [Compound I-211, 2-(6-chloro-4-methylpyridin-3-yl)-4-ethoxy-N-[3-(4H-1,2,4-triazol-3-yl)propyl]quinoline-7-carboxamide]",inhibition at 1 µM,[1]; [3],50%
same,IC50,[1],> 100 nM
same,viability at 1.667 µM,[2],3%
"CCOc1cc(-c2cc(F)ccc2OC)nc2cc(C(=O)NCCCc3nnc[nH]3)ccc12 [Compound I-199, 4-ethoxy-2-(5-fluoro-2-methoxyphenyl)-N-[3-(4H-1,2,4-triazol-3-yl)propyl]quinoline-7-carboxamide]",inhibition at 1 µM,[1]; [3],100%
same,IC50,[1],10 to 50 nM
same,viability at 1.667 µM,[2],2%
"CCOc1cc(-c2cc(OC)ncc2F)nc2cc(C(=O)NCCCc3[nH]nnc3C)ccc12 [Compound I-68, 4-ethoxy-2-(5-fluoro-2-methoxypyridin-4-yl)-N-[3-(4-methyl-1H-1,2,3-triazol-5-yl)propyl]quinoline-7-carboxamide]",inhibition at 1 µM,[1]; [3],92%
same,IC50,[1],10 to 50 nM
same,viability at 1.667 µM,[2],1%
"CCOc1cc(-c2ccc(F)cc2)nc2cc(C(=O)NCC3CC3c3ncc[nH]3)ccc12 (single isomer, unassigned) [Compound I-51, 4-Ethoxy-2-(4-fluorophenyl)-N-{[trans-(1,2)-2-(1H-imidazol-2-yl)cyclopropyl]methyl}quinoline-7-carboxamide]",Percent Inhibition,[1]; NAMPT inhibition at compound concentration 1 μM,98%
same,IC50,[1],10 to 50 nM
same,Percent Viability,"[2]; human, 72 h, 1.667 µM",4%
"CCOc1cc(-c2cc(C)nc(OC)c2)nc2cc(C(=O)NCCCc3nnc[nH]3)ccc12 [Compound I-136, 4-ethoxy-2-(2-methoxy-6-methylpyridin-4-yl)-N-[3-(4H-1,2,4-triazol-3-yl)propyl]quinoline-7-carboxamide]",inhibition at 1 µM,[1]; [3],98%
same,IC50,[1],< 10 nM
same,viability at 1.667 µM,[2],2%
"CCOc1cc(C2CC2)nc2cc(C(=O)NCCCc3ncc[nH]3)ccc12 [Compound I-58, N-(3-(1H-Imidazol-2-yl)propyl)-2-cyclopropyl-4-ethoxyquinoline-7-carboxamide]",inhibition at 1 µM,[1]; [3],96%
same,IC50,[1],10 to 50 nM
same,viability at 1.667 µM,[2],1%
"CCOc1cc(-c2ccc(F)cc2)nc2cc(C(=O)NCCc3c[nH]nc3C)ccc12 [Compound I-132, 4-ethoxy-2-(4-fluorophenyl)-N-[2-(3-methyl-1H-pyrazol-4-yl)ethyl]quinoline-7-carboxamide]",inhibition at 1 µM,[1]; [3],> 99%
same,IC50,[1],< 10 nM
same,viability at 1.667 µM,[2],3%
"CCOc1cc(-c2ccc(F)cc2)nc2cc(C(=O)NCCCc3cncnc3)ccc12 [Compound I-228, 4-ethoxy-2-(4-fluorophenyl)-N-[3-(pyrimidin-5-yl)propyl]quinoline-7-carboxamide]",inhibition at 1 µM,[1]; [3],94%
same,IC50,[1],< 10 nM
same,viability at 1.667 µM,[2],5%
"COCCOc1cc(-c2ccc(F)cc2)nc2cc(C(=O)NCC(F)(F)Cc3nnc[nH]3)ccc12 [Compound I-81, N-[2,2-difluoro-3-(4H-1,2,4-triazol-3-yl)propyl]-2-(4-fluorophenyl)-4-(2-methoxyethoxy)quinoline-7-carboxamide]",inhibition at 1 µM,[1]; [3],67%
same,IC50,[1],> 100 nM
same,viability at 1.667 µM,[2],2%
"CCOc1cc(-c2ccc(Cl)s2)nc2cc(C(=O)NCc3nc4cnccc4[nH]3)ccc12 [Compound I-175, 2-(5-chloro-2-thienyl)-4-ethoxy-N-(1H-imidazo[4,5-c]pyridin-2-ylmethyl)quinoline-7-carboxamide]",inhibition at 0.33 µM,"[1]; NAMPT inhibition at compound concentration 0.33 μM, read-out: Percent Inhibition",98%
same,IC50,[1],< 10 nM
same,viability at 1.667 µM,[2],2%
"CCOc1cc(-c2ccc(F)cc2)nc2cc(C(=O)N[C@H]3C[C@@H](c4nnc[nH]4)C3)ccc12 [Compound I-222, 4-ethoxy-2-(4-fluorophenyl)-N-[cis-3-(4H-1,2,4-triazol-3-yl)cyclobutyl]quinoline-7-carboxamide]",inhibition at 1 µM,[1]; [3],96%
same,IC50,[1],10 to 50 nM
same,viability at 1.667 µM,[2],4%
"CCOc1cc(-c2ccc(F)cc2)nc2cc(C(=O)NCCc3nn[nH]n3)ccc12 [Compound I-221, 4-ethoxy-2-(4-fluorophenyl)-N-[2-(2H-tetrazol-5-yl)ethyl]quinoline-7-carboxamide]",inhibition at 1 µM,[1]; [3],53%
same,IC50,[1],> 100 nM
same,viability at 1.667 µM,[2],89%
"CCOc1cc(-c2ccc(C)nc2OC)nc2cc(C(=O)NCCCc3nc[nH]n3)ccc12 [Compound I-183, 4-ethoxy-2-(2-methoxy-6-methylpyridin-3-yl)-N-[3-(1H-1,2,4-triazol-3-yl)propyl]quinoline-7-carboxamide]",inhibition at 1 µM,[1]; [3],94%
same,IC50,[1],50 to 100 nM
same,viability at 1.667 µM,[2],2%
"CCOc1nc(-c2ccc(Cl)s2)nc2cc(C(=O)NCc3ccc4nccn4c3)ccc12 [Compound I-28, 2-(5-chloro-2-thienyl)-4-ethoxy-N-(imidazo[1,2-a]pyridin-6-ylmethyl)quinazoline-7-carboxamide]",inhibition at 1 µM,[1]; [3],99%
same,IC50,[1],< 10 nM
same,viability at 1.667 µM,[2],1%
"CCOc1cc(-c2ccnc(OC)c2)nc2cc(C(=O)NCCCc3cnn[nH]3)ccc12 [Compound I-116, 4-ethoxy-2-(2-methoxypyridin-4-yl)-N-[3-(1H-1,2,3-triazol-5-yl)propyl]quinoline-7-carboxamide]",inhibition at 1 µM,[1]; [3],98%
same,IC50,[1],< 10 nM
same,viability at 1.667 µM,[2],2%
"CCOc1cc(-c2cccnc2OC)nc2cc(C(=O)NCCc3nnc[nH]3)ccc12 [Compound I-180, 4-ethoxy-2-(2-methoxypyridin-3-yl)-N-[2-(4H-1,2,4-triazol-3-yl)ethyl]quinoline-7-carboxamide]",inhibition at 1 µM,[1]; [3],83%
same,IC50,[1],> 100 nM
same,viability at 1.667 µM,[2],2%
